Key:
MALME-3M = assay: NCI60 five-dose GI50; format: cell-based; settings: Homo sapiens
Source text: (§1) The concentration−response curve generated enables the determination of three criteria, GI50 (drug concentration at which 50% of cell growth is inhibited), total growth inhibition (TGI) and LC50 (drug concentration at which 50% of tumor cells are killed) which can be used to compare effectiveness against any compound tested in the screen since its inception.
(§2) S2.1 NCI Screening Assay Experimental details
(§3) NCI Screening Assay Experimental: Cancer cell growth assays (NCI60 screening) 5,6 One-dose study: Tested compounds were initially solubilised in DMSO, diluted into RPMI 1640 and 5% fetal bovine serum/L-glutamine, and added to 96-well plates containing cell lines previously cultured for 24 h. After 48 h incubation, the media were removed, and the cells were fixed and stained with sulforhodamine B to determine overall percent growth/ total protein content. Unbound dye was removed with five washes of 1% acetic acid, and the plates were allowed to air dry. The dye was then resolubilised in Tris buffer, and the colorimetric absorbance was measured (515 nm). Growth inhibition was measured relative to the response generated from proliferating cells cultured under identical conditions for 48 h. Data from one-dose experiments pertains to the percentage growth at […]
(§4) Five-dose study: Serial 5 × 10-fold dilution from an initial DMSO stock solution was performed, prior to incubation at each individual concentration (10 nM, 100 nM, 1 μM, 10 μM and 100 μM). Using seven absorbance measurements (time zero (Tz), control growth (C), and test growth in the presence of drug at the five concentration levels (Ti)), the percentage growth was calculated at each of the drug concentrations levels. Percentage growth inhibition was calculated as: [(Ti − Tz)/(C − Tz)] × 100 for concentrations for which Ti ≥ Tz, [(Ti − Tz)/Tz] × 100 for concentrations for which Ti < Tz. Three dose response parameters were calculated for each experimental agent. […]
(§5) was calculated from [(Ti − Tz)/(C − Tz)] × 100 = 50, which is the drug concentration resulting in a 50% reduction in the net protein increase (as measured by sulforhodamine B staining) in control cells during the drug incubation. The drug concentration resulting in total growth inhibition (TGI) was calculated from Ti = Tz. The LC50 (concentration of drug resulting in a 50% reduction in the measured protein at the end of the drug treatment as compared to that at the beginning) indicating a net loss of cells following treatment was calculated from [(Ti − Tz)/Tz] × 100 = −50. Values were calculated for each of these three parameters if the level of activity was reached; however, if the effect was not reached or was exceeded, the value for that parameter was expressed as greater or less than the maximum or minimum concentration tested.

OVCAR-4 = assay: NCI60 five-dose GI50; format: cell-based; settings: Homo sapiens
Source text: as §1, §2, §3, §4, §5

colon cell line panel = assay: NCI60 five-dose GI50, colon cell line panel; format: cell-based; settings: Homo sapiens, read-out: GI50 range colon cell line panel
Source text: as §1, §2
NCI Screening Assay Experimental: Cancer cell growth assays (NCI60 screening) 5,6 One-dose study: Tested compounds were initially solubilised in DMSO, diluted into RPMI 1640 and 5% fetal bovine serum/L-glutamine, and added to 96-well plates containing cell lines previously cultured for 24 h. […] The dye was then resolubilised in Tris buffer, and the colorimetric absorbance was measured (515 nm). Growth inhibition was measured relative to the response generated from proliferating cells cultured under identical conditions for 48 h. […]
Five-dose study: Serial 5 × 10-fold dilution from an initial DMSO stock solution was performed, prior to incubation at each individual concentration (10 nM, 100 nM, 1 μM, 10 μM and 100 μM). Using seven absorbance measurements (time zero (Tz), control growth (C), and test growth in the presence of drug at the five concentration levels (Ti)), the percentage growth was calculated at each of the drug concentrations levels. […]

NCI-H460 cells = assay: Western blot protein expression analysis; format: cell-based, human
Description: Western blot analysis was performed to evaluate the expression of known proteins associated with cell proliferation, cell cycle, apoptosis, and DNA damage (Figure 10).
Figure 10 Effect of compound 25 on the NCI-H460 cellular expression of proteins involved in proliferation, cell death and DNA damage, analyzed by Western Blotting. […] (B) Graphical representation of the expression of proteins analyzed. β-actin was used as loading control. Results are the mean ± SEM from 3 independent experiments. * p ≤ 0.05, ** p ≤ 0.01 when comparing DMSO vs compound treatment.
After this treatment, cells were centrifuged at 1200 rpm for 5 min at 4 °C, and then lysed in Wynman’s buffer, as previously described,[79] containing EDTA-free protease (Roche, Basel, Switzerland) and phosphatase inhibitors (Merck Life Science) for 30 min with agitation and at 4 °C. Protein lysates were obtained after centrifugation at 13 000 rpm, for 10 min at 4 °C, and stored at −20 °C until used. A modified Lowry protocol, DC Protein assay kit (Bio-Rad, Hercules, California, USA), was used to quantify the total protein content (using a BSA standard calibration curve). The absorbance was analyzed with the Gen5 software on the microplate reader Synergy Mx, […].
Then 20 μg of protein per treatment condition was loaded and separated in 12% SDS-PAGE gels and electrophoretically transferred into nitrocellulose membranes (GE Healthcare Life Science, Chalfont St Giles, UK) for 2 h using a Mini Trans-Blot Cell system (Bio-Rad). The membranes were then stained with Ponceau S solution (PanReac AppliChem, Barcelona, Spain) to confirm that proper protein transfer occurred. Then, the membranes were blocked in Tris-buffered saline solution (TBS) pH 7.4 containing 5% (w/v) nonfat dry milk (Molico, Nestlé, Vevey, Switzerland) or 5% (w/v) BSA for 2 h at RT. The membranes were incubated for 90 min at RT with the following primary antibodies: caspase-3 (1:200; sc-56053), cyclin D1 (1:200; sc-8396), cyclin E (1:100; sc-377100), p21 (1:200; sc-6246), p53 (1:200; sc-126), PARP-1 (1:200; sc-8007), p-Histone H2A.X (1:200; sc-517348), TP53BP1 (1:100; sc-515841), and β-actin (1:200; sc-13118) from Santa Cruz Biotechnology, Dallas, Texas, USA. Following washing steps in TBS-T, the membranes were incubated with their respective secondary antibodies, antimouse IgG horseradish peroxidase (HRP) (Cytiva, Marlborough, Massachusetts, USA) or antirabbit IgG-HRP (Cytiva) for 1 h at RT in an orbital shaker. […] The signal was detected with a Fuji Medical Film Processor (FPM-100A model), and the immunoblots were digitalized using the GS-800 calibrated densitometer (Bio-Rad). Band quantification was carried out with Software Image Lab version 6.0.1 (Bio-Rad), and the molecular weight of protein bands were estimated by comparison with the bands from a protein marker (PageRuler Plus Prestained Protein Ladder, 10−250 kDa, Thermo Fisher Scientific).

How did the GI50 (MALME-3M) turn out when `COC(=O)c1c2c(c[n+]([O-])c1C)C(=O)C=C(NCc1ccccc1)C2=O` [Compound 25] was run?
The GI50 was 48 nM.

And the GI50 (OVCAR-4)?
The GI50 was 69 nM.

And the GI50 (colon cell line panel)?
Its GI50 is 157 to 247 nM.

What about the “cyclin D1 expression” value (NCI-H460 cells; 48 h) of the same molecule?
The value was “increased the expression of cyclin D1 (although not statistically significantly)”.

What about the p53 expression (NCI-H460 cells; 48 h) of the same molecule?
Its p53 expression is “slightly increased the expression of p53, although not statistically significant”.

And the PARP-1 expression (NCI-H460 cells; 48 h, 0.35 and 0.7 μM)?
The PARP-1 expression was “does not alter the expression levels of PARP-1”.

And the p21 expression (NCI-H460 cells; 48 h, 2 × GI50)?
The p21 expression was “clearly increased the expression of p21”.

What about the procaspase-3 expression (NCI-H460 cells; 48 h, both 0.35 and 0.7 μM) of the same molecule?
The procaspase-3 expression was “significant decrease in procaspase-3”.

And the “TP53BP1 and p-histone H2A.X expression” value (NCI-H460 cells; higher concentration tested, not statistically significant)?
Its value is “increased the expression levels of TP53BP1 and of the p-histone H2A.X”.

What about the “p62, LC3-I and LC3-II expression” value (NCI-H460 cells; preliminary, data not shown) of the same molecule?
The value was “did not alter the expression levels of p62, LC3-I. and LC3-II”.

— publication PMC11345829, “Discovery of Potent Isoquinolinequinone N-Oxides to Overcome Cancer Multidrug Resistance” (Journal of Medicinal Chemistry, 2024)
